Common to all, as to experiment: NCI-60 cell line screen, 48 h
Test [1] concerns HCT-116 colon.
The subject of test [2] is 786-0 renal.
The subject of test [3] is LOX IMVI melanoma.
Test [4] deals with M14 melanoma.
In test [5] the test system is OVCAR-5 ovarian.
Test [6] relates to SF-268 CNS.
For test [7], the system named is HOP-92 NSCLC.
Test [8] concerns U251 CNS.
Test [9] concerns OVCAR-8 ovarian.
Test [10] has as its system SNB-19 CNS.

Each structure is given as a SMILES string.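 96-well plates; 48 h exposure; 5 concentrations. Endpoints by linear interpolation between flanking doses. Not reached: highest tested concentration assigned. Abbreviation: GI50, concentration required for 50% inhibition of growth. At the TGI there is no net growth.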

Turning to `CCc1ccc(Cc2ccc(CC)c(NC(=O)C(=O)Cc3nc4ccccc4nc3C)c2CC)c(CC)c1NC(=O)C(=O)Cc1nc2ccccc2nc1C`, the TGI in test [1], in [2], in test [3], in test [4], in test [5] and in [6] was > 100 µM each time. Besides, the TGI in [7] was 43 µM; in [8] it was > 100 µM; in test [9], > 100 µM; in [10], > 100 µM.

As to `CN(C)C1(C#N)CCC2(CC1)OCCO2`, the TGI in test [1], in [2], in test [3], in test [4], in test [5] and in test [6] was > 100 µM each time. Also, the TGI in test [7], in [8], in [9] and in [10] was > 100 µM in each case.

`Cc1nc2c(cnn2-c2ccnc3c(C(F)(F)F)cccc23)c(=O)o1`: the GI50 in test [1], in [2], in test [3], in [5], in test [6] and in [7] was > 100 µM throughout. In addition, the GI50 in test [8], in test [9] and in test [10] was > 100 µM each time. Moreover, the TGI in [1], in [2], in test [3], in test [5], in test [6] and in test [7] was > 100 µM in each case. Besides, the TGI in [8], in test [9] and in [10] was > 100 µM throughout.

`COCCNC(=O)C1C(=O)N(CCOC)C(=O)/C1=N/N` (configuration not stated): the TGI in test [1], in test [2], in test [3], in test [4], in test [6] and in [7] was > 100 µM in each case. Also, the TGI in test [8] and in test [10] was > 100 µM each time.

Regarding `CC/C(=C(\c1ccccc1)c1ccc(OCCN(C)C)cc1)c1ccccc1`, the GI50 was 2.25 µM in test [1]; 2.96 µM in test [2]; 1.49 µM in test [3]; 1.02 µM in [4]; 6.76 µM in [5]; 1.43 µM in test [7]. The GI50 in test [9] was 5.35 µM.

Take `CC(=O)O[C@@H]1C=CC(=O)C2(CC(=O)O[C@@H]2/C=C(\C)CCC=C(C)C)C1` (some centres not stated): the GI50 in [1] is 0.399 µM; in test [2], 0.931 µM; in test [3], 0.229 µM; in test [5], 0.267 µM; in [6], 1.05 µM; in [7], 1.59 µM. The GI50 was 0.82 µM in [8], 0.35 µM in test [9] and 1.6 µM in test [10]. Moreover, the TGI was found to be 1.71 µM in test [1]; 2.26 µM in [2]; 0.743 µM in test [3]; 1.08 µM in test [5]; 2.31 µM in test [6]; 3.94 µM in test [7]. Moreover, the values for the TGI in test [8], in [9] and in test [10] were 2.07 µM, 1.81 µM and 3.58 µM, respectively.

Turning to `C1=C[C@@H]2c3ccc4cnccc4c3NC[C@@H]2C1`, the TGI in [1], in test [2], in test [4], in test [5], in test [6] and in [7] was > 100 µM throughout. Besides, the TGI in test [8], in [9] and in test [10] was > 100 µM each time.

Regarding `COc1ccc(C(=O)O/N=C2\CCCC\C2=C/c2ccccc2)cc1`, the TGI in test [1], in test [2], in test [3], in test [4], in test [6] and in test [8] was > 100 µM each time. Further, the TGI in test [9] and in test [10] was > 100 µM each time.

Turning to `COC1CCC(=C2C(=O)OC(C)(C)OC2=O)N1` (configuration not stated), the TGI in test [1], in test [2], in test [3], in [4], in [5] and in [6] was > 100 µM throughout. Further, the TGI in test [8], in [9] and in test [10] was > 100 µM each time.

In the case of `CCCCN(CCCC)C(=Nc1ccccc1)N(CCCC)CCCC`, the TGI in test [1] came to 13.8 µM; in [2], 15.2 µM; in [3], 13.6 µM; in test [5], 27.8 µM; in test [6], 46.8 µM; in [7], 7.06 µM. Besides, the values for the TGI in test [8], in test [9] and in test [10] were 17.4 µM, 24.9 µM and 32 µM, respectively.

In the case of `CCN(CC)CCN(C)CC(C)(C)C(=O)/C=C/c1ccccc1`, the TGI worked out at 29.4 µM in test [2]; 24 µM in [3]; 25.7 µM in [4]; 26.9 µM in [5]; 27.2 µM in test [6]; 18.1 µM in test [7]. The values for the TGI in test [8], in test [9] and in [10] were 22.1 µM, 43.2 µM and 28.4 µM, respectively.

With `Cc1cc2c(-c3nc4ccccc4[nH]3)c(O)c(O)cc2c(O)c1-c1c(C)cc2c(-c3nc4ccccc4[nH]3)c(O)c(O)cc2c1O`, the GI50 was 0.00866 µM in test [1]; 0.0801 µM in test [2]; 0.08 µM in [4]; 0.0852 µM in [5]; 0.0312 µM in test [6]; 0.0232 µM in test [7]. For the same molecule, the GI50 in test [8] is 0.0174 µM; in [9], 0.0664 µM; in [10], 0.0202 µM. The TGI was 3.29 µM in test [1]; 1.01 µM in test [2]; > 50 µM in test [4]; > 20.3 µM in test [5]; 3.72 µM in test [6]; 1.54 µM in [7]. The TGI is > 50 µM in test [9] and 9.62 µM in [10].
